We go through three compounds from article PMC8134483 (Scientific Reports, 2021).

The target of experiment [1] is T1, hCB2R (Homo sapiens, UniProt P34972).
T1 construct: host or cells: CHO-K1 (PathHunter)
The experiment can be described thus: HitHunter inhibition of FSK-stimulated cAMP, CB2R. The format is cell-based.

Experiment [2] concerns the target T1, hCB2R. In words: CB2R bias analysis (operational model, cAMP inhibition vs βarrestin2). In kind it is cell-based. The settings on record: CP55,940 as reference agonist; >0 cAMP bias, <0 βarrestin2 bias. How it is done: (§1) Estimates of Ki, EC50, Emin, and Emax were determined using non-linear regression with variable slope (four parameters) (GraphPad, Prism, v. 8.0). […] One-way analysis of variance (ANOVA), followed by Tukey’s post-hoc test, was used for statistical analyses (p < 0.05 determined to be significant); and Bartlett’s test was used to confirm homogeneity of variance (GraphPad).

The target in experiment [3] is T1, hCB2R. In words: PathHunter βarrestin2 recruitment, CB2R. The format is cell-based. The settings on record: for βarrestin2 recruitment to CB2R, activity in words: relative to CP55,940. Background: Activated receptors often draw arrestin, which recruitment assays turn into a signal.
For experiment [4], the target named is T2, hCB1R (Homo sapiens, UniProt P21554).
T2 construct: expressed in transfected cells; host or cells: CHO-K1
T2 sequence (P21554 whole entry): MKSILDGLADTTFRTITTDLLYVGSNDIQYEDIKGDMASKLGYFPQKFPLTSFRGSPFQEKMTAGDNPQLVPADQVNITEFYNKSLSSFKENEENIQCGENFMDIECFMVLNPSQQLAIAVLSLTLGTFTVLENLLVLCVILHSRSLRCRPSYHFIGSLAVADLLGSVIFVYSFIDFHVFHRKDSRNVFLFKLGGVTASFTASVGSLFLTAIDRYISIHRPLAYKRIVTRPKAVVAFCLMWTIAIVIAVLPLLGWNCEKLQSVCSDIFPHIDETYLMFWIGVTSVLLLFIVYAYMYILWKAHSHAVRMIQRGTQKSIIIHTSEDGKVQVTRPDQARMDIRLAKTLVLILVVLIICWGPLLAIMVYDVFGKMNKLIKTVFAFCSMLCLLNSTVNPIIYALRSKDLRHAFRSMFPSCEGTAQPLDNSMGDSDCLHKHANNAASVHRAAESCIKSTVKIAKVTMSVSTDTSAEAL
In words: biochemical. The settings on record: for CB1R [^3H]CP55,940 Emin: bottom of the concentration–response curve, mean ± SEM. The format is binding.

Experiment [5] addresses T2, hCB1R. The experiment can be described thus: cell-based. The format is cell-based. The settings on record: for CB1R versus CB2R selectivity, βarrestin2 recruitment: CB1R vs CB2R; for EC50: CHO hCB1R, 90 min, value with 95% CI, read-out: CB1R βarrestin2 recruitment EC50; for Emax: read-out: CB1R βarrestin2 recruitment Emax; for βarrestin2 recruitment to CB1R, activity in words: relative to CP55940.

Experiment [6] has as its target T2, hCB1R. In words: cell-based. The format is cell-based. The settings on record: for EC50: CHO hCB1R, 10 µM FSK, 90 min, value with 95% CI, read-out: CB1R cAMP Inhibition EC50; for Emax: read-out: CB1R cAMP Inhibition Emax.
Experiment [7] addresses T1, hCB2R. The experiment can be described thus: [^3H]CP55,940 competition (radioligand displacement) binding to CB2R. As to conditions: for CB2R [^3H]CP55,940 Emin: bottom of the concentration–response curve, mean ± SEM. Background: Loss of bound radioactivity is the signal in a displacement assay; it reports binding, not function.
In experiment [8] the target is T2, hCB1R. The experiment can be described thus: CB1R bias analysis (operational model, cAMP inhibition vs βarrestin2). The settings on record: CP55,940 as reference agonist; >0 cAMP bias, <0 βarrestin2 bias. The format is cell-based. How it is done: as §1

Broadly, the EC50 is the concentration needed to bring the measured effect to its halfway point. Broadly, the Emax is the size of the effect at its maximum, as opposed to the concentration needed. A word on the Ki: it is a measure of affinity in units of concentration, obtained from inhibition or displacement.

Like-named read-outs stand apart in the source and are kept apart here.

T1 sequence (P34972 whole entry): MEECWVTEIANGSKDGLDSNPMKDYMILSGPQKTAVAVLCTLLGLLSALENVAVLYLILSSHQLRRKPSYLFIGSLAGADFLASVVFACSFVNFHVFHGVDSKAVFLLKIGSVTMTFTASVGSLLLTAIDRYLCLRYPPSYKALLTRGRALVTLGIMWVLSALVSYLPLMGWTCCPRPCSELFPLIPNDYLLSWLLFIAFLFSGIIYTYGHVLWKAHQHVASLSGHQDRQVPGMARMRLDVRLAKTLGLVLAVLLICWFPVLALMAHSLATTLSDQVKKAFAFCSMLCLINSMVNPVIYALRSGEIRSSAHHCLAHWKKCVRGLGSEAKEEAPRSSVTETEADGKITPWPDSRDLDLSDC

On hCB2R [1], `CC(C)C(NC(=O)c1nn(Cc2ccccc2F)c2ccccc12)C(N)=O` (stereo not shown) [ortho-AB-FUBINACA] gave an EC50 of 0.06 nM and an Emax of 110 ± 6.7%. Further, the “CB2R bias between cAMP inhibition and βarrestin2 recruitment, ∆∆LogR (cAMP—βarr2), in words” value on hCB2R [2] is “significant bias toward the inhibition of cAMP”. Besides, on hCB2R [3], it took 140 nM to reach a half-maximal effect (EC50); the Emax stood at 120 ± 3.1%; the “βarrestin2 recruitment to CB2R, activity in words” value (shortened to “βarrestin2 recruitment to CB2R”) was “not different with regard to potency relative to the reference agonist CP55,940, and produced supramaximal EMax responses”. Besides, at hCB1R [4], the affinity, expressed as Ki, was 2.7 nM and the “CB1R [^3H]CP55,940 Emin” value turned out to be 16 ± 5.4%. For the same compound, on hCB1R [5], the “CB1R versus CB2R selectivity, βarrestin2 recruitment” value is listed as “more potent for CB2R-dependent recruitment of βarrestin2 than CB1R-dependent recruitment of βarrestin2”; the EC50 was 810 nM; the Emax is 280 ± 11%; the “βarrestin2 recruitment to CB1R, activity in words” value (from here on “βarrestin2 recruitment to CB1R”) is reported as “equipotent, but produced supramaximal EMax responses”. For the same compound, on hCB1R [6], the EC50 was 3.6 nM and the Emax is 83 ± 8.4%. Besides, on hCB2R [7], the “Affinity for CB2R compared with CP55,940, in words” value is reported as “significantly greater affinity”; the “Competition of 1.0 nM [^3H]CP55,940 from CB2R, in words” value (“Competition … from CB2R, in words” for short) is “completely displaced”; the Ki amounted to 0.93 nM; the “CB2R [^3H]CP55,940 Emin” value turned out to be 17 ± 1.2%. In addition, at hCB1R [8], the “CB1R bias between cAMP inhibition and βarrestin2 recruitment, ∆∆LogR (cAMP—βarr2), in words” value is on record as “significant bias toward the recruitment of βarrestin2”.
`O=C(Oc1cccc2cccnc12)c1nn(CCCCCF)c2ccccc12` [5-fluoro NPB-22]: at hCB2R [1], the EC50 is 3.2 nM and the maximal response (Emax) was 110 ± 7.6%. Besides, the “CB2R bias between cAMP inhibition and βarrestin2 recruitment, ∆∆LogR (cAMP—βarr2), in words” value at hCB2R [2] is listed as “did not display a bias”. Moreover, on hCB2R [3], the EC50 is 280 nM; the Emax was 120 ± 3.7%; the “βarrestin2 recruitment to CB2R” value is “not different with regard to potency relative to the reference agonist CP55,940, and produced supramaximal EMax responses”. Further, on hCB1R [4], the Ki turned out to be 47 nM and the “CB1R [^3H]CP55,940 Emin” value came out at 2.3 ± 7.8%. In addition, at hCB1R [5], the EC50 came to 830 nM; the Emax is 210 ± 12%; the “βarrestin2 recruitment to CB1R” value was “equipotent, but produced supramaximal EMax responses”. For the same compound, at hCB1R [6], the EC50 is 53 nM and the Emax stood at 96 ± 7%. At hCB2R [7], the Ki turned out to be 4.3 nM and the “CB2R [^3H]CP55,940 Emin” value was determined as 34 ± 8.1 %. For the same compound, the “CB1R bias between cAMP inhibition and βarrestin2 recruitment, ∆∆LogR (cAMP—βarr2), in words” value on hCB1R [8] is “significant bias toward the recruitment of βarrestin2”.
At hCB2R [1], `CCCC(F)Cn1nc(C(=O)NC(C(N)=O)C(C)C)c2ccccc21` (stereo not drawn) [AB-PINACA N-(2-fluoropentyl) isomer] returned an EC50 of 10 nM and an Emax of 91 ± 3.2%. For the same compound, the “CB2R bias between cAMP inhibition and βarrestin2 recruitment, ∆∆LogR (cAMP—βarr2), in words” value at hCB2R [2] was “significant bias toward the recruitment of βarrestin2”. Also, at hCB2R [3], the EC50 was found to be 9.4 nM; the Emax turned out to be 140 ± 12%; the “βarrestin2 recruitment to CB2R” value is “greater potency and produced supramaximal EMax responses”. For the same compound, on hCB1R [4], the “Competition of 1.0 nM [^3H]CP55,940 from CB1R, in words” value was “only partially competing”; the Ki was 1.6 nM; the “CB1R [^3H]CP55,940 Emin” value is 76 ± 6.2 %. Further, on hCB1R [4] (CB1R vs CB2R [^3H]CP55,940 binding), the “CB1R versus CB2R selectivity, receptor affinity” value was “greater affinity at CB1R relative to CB2R”. For the same compound, at hCB1R [5], the “CB1R versus CB2R selectivity, βarrestin2 recruitment” value is reported as “more potent for CB2R-dependent recruitment of βarrestin2 than CB1R-dependent recruitment of βarrestin2”; the EC50 worked out at 240 nM; the Emax is 204 ± 10%; the “βarrestin2 recruitment to CB1R” value was “greater potency and produced supramaximal EMax responses”. For the same compound, at hCB1R [6], the EC50 was 7.3 nM and the Emax was determined as 75 ± 7.5%. Further, on hCB1R [6] (relative to CP55940), the “CB1R-dependent inhibition of FSK-stimulated cAMP, activity in words” value was “partial agonist”. Also, at hCB2R [7], the “Affinity for CB2R compared with CP55,940, in words” value is reported as “significantly less affinity”; the “Competition … from CB2R, in words” value was “completely displaced”; the inhibitory constant (Ki) stood at 270 nM; the “CB2R [^3H]CP55,940 Emin” value stood at 2.8 ± 8.1 %. The “Competition … from CB2R, in words” value at hCB2R [7] (listed as AB PINACA N-(2-fluoropentyl) isomer) is “fully competed”. Further, the “CB1R bias between cAMP inhibition and βarrestin2 recruitment, ∆∆LogR (cAMP—βarr2), in words” value at hCB1R [8] is listed as “did not display a bias”.
